Measurements from patent US12172983B2, “EGFR inhibitors” (Blueprint Medicines Corporation, priority 2019, dated 2024).
Like-named read-outs stand apart in the source and are kept apart here.

Key:
[1] = molecular target: T1, EGFR (L858R T790M C797S) (Homo sapiens, UniProt P00533, C797S/L858R/T790M); experiment: Biochemical EGFR inhibition assay (Caliper mobility shift), EGFR LRTMCS mutant; settings: inhibitory activity against EGFR LRTMCS mutant; apparent IC50; read-out: Ext Enz LRTMCS
T1 construct: purchased SignalChem E10-122VG
T1 sequence (P00533 25-1210 T790M/C797S/L858R): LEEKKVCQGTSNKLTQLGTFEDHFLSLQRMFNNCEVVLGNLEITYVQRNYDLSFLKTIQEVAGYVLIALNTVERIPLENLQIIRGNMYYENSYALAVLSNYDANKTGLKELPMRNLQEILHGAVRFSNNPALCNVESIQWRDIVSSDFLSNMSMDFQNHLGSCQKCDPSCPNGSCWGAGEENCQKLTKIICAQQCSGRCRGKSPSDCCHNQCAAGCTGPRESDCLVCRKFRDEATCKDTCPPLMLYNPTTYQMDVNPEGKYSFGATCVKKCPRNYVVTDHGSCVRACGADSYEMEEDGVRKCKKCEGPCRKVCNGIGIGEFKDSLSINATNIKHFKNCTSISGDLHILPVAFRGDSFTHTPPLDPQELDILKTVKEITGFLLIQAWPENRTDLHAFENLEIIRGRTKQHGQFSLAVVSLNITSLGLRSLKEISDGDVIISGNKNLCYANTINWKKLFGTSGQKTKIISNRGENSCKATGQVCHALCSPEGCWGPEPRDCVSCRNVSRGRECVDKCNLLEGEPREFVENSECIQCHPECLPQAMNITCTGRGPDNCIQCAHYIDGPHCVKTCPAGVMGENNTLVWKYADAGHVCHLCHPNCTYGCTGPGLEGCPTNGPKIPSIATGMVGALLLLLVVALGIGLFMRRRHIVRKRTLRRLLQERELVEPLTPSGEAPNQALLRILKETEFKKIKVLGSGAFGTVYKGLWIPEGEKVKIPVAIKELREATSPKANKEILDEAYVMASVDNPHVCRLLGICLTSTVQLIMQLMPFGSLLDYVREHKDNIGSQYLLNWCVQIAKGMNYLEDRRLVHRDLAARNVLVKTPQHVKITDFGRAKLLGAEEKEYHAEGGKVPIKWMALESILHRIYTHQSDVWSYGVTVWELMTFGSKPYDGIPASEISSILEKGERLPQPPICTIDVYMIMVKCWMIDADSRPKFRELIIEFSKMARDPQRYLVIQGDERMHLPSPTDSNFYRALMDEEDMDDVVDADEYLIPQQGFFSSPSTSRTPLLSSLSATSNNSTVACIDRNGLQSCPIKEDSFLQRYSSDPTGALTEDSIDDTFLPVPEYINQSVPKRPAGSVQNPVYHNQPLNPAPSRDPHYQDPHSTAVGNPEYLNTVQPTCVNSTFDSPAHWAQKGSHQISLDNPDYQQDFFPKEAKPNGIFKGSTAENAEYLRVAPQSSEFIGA
Procedure, shortened: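 Apparent IC50s were derived by plotting percent activity against the log of compound concentration. Activity was measured as phosphopeptide electrophoretically separated from substrate, after reactions at room temperature reached 10% to 20% phosphorylation and were halted with 35 mM EDTA.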

[2] = tested on: phosphorylation of EGFR (Tyr1068) in NCI-H1975 cell line that harbors the EGFR L858R T790M mutations; experiment: NCI-H1975 pEGFR AlphaLISA assay; format: cell-based; settings: 4-5 hours incubation, read-out: Ext pEGFR H1975
Procedure, shortened: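 NCI-H1975 cells (EGFR L858R/T790M) seeded overnight, then treated with compound for 4-5 h at 37 °C/5% CO2. After lysis, p-EGFR (Tyr1068) quantified by AlphaLISA SureFire Ultra with acceptor then donor beads; IC50 fitted from percent inhibition versus log concentration.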

[3] = Homo sapiens, NCI-H1975, inhibition of phosphorylation of mutant EGFR in NCI-H1975 cells

Structure (SMILES) | IC50 [1] | IC50 [2, 3] | IC50 ([2]; inhibition of phosphorylation of mutant EGFR in NCI-H1975 cells)
CCS(=O)(=O)CC1CN(c2ncc(C(C)C)c3cc(Nc4ccnc(N5CC[C@@H](O)[C@@](C)(F)C5)n4)ncc23)C1 (single isomer, unassigned) [Compound 124] | ≤ 15 nM | ≤ 10 nM | 
CC(C)c1ccc(N2C[C@H](CS(C)(=O)=O)[C@H]2C)c2cnc(Nc3ccnc(N4CC[C@@](C)(O)[C@H](O)C4)n3)cc12 (single isomer, unassigned) [Compound 102, (3R,4R)-1-[4-({8-[(2R,3S)-3-(methanesulfonylmethyl)-2-methylazetidin-1-yl]-5-(propan-2-yl)isoquinolin-3-yl}amino)pyrimidin-2-yl]-4-methylpiperidine-3,4-diol or (3S,4S)-1-[4-({8-[(2R,3S)-3-(methanesulfonylmethyl)-2-methylazetidin-1-yl]-5-(propan-2-yl)isoquinolin-3-yl}amino)pyrimidin-2-yl]-4-methylpiperidine-3,4-diol] | ≤ 15 nM | 20.1 to 30 nM | 
CO[C@@H]1[C@H](O)CN(c2nccc(Nc3cc4c(C(C)C)ccc(N5CC(CS(C)(=O)=O)C5)c4cn3)n2)C[C@@H]1F (single isomer, unassigned) [Compound 148, (3R,4R,5S)-5-fluoro-1-[4-({8-[3-(methanesulfonylmethyl)azetidin-1-yl]-5-(propan-2-yl)isoquinolin-3-yl}amino)pyrimidin-2-yl]-4-methoxypiperidin-3-ol or (3S,4S,5R)-5-fluoro-1-[4-({8-[3-(methanesulfonylmethyl)azetidin-1-yl]-5-(propan-2-yl)isoquinolin-3-yl}amino)pyrimidin-2-yl]-4-methoxypiperidin-3-ol] | ≤ 15 nM | ≤ 10 nM | 
CO[C@H]1[C@@H](O)CN(c2nccc(Nc3cc4c(C(C)C)ncc(N5C[C@H](CS(C)(=O)=O)[C@H]5C)c4cn3)n2)CC1(F)F (single isomer, unassigned) [Compound 234, (3S,4S)-5,5-difluoro-1-[4-({8-[(2R,3S)-3-(methanesulfonylmethyl)-2-methylazetidin-1-yl]-5-(propan-2-yl)-2,6-naphthyridin-3-yl}amino)pyrimidin-2-yl]-4-methoxypiperidin-3-ol or (3R,4R)-5,5-difluoro-1-[4-({8-[(2R,3S)-3-(methanesulfonylmethyl)-2-methylazetidin-1-yl]-5-(propan-2-yl)-2,6-naphthyridin-3-yl}amino)pyrimidin-2-yl]-4-methoxypiperidin-3-ol] | 20.1 to 30 nM | 20.1 to 30 nM | 
CO[C@@H]1CCN(c2nccc(Nc3cc4c(C(C)C)ccc(N5C[C@H](CS(C)(=O)=O)[C@H]5C)c4cn3)n2)C[C@@H]1O (single isomer, unassigned) [Compound 93, (3S,4R)-1-(4-(5-isopropyl-8-((2R,3S)-2-methyl-3-(methylsulfonylmethyl)azetidin-1-yl)isoquinolin-3-ylamino)pyrimidin-2-yl)-4-methoxypiperidin-3-ol or (3R,4S)-1-(4-(5-isopropyl-8-((2R,3S)-2-methyl-3-(methylsulfonylmethyl)azetidin-1-yl)isoquinolin-3-ylamino)pyrimidin-2-yl)-4-methoxypiperidin-3-ol] | ≤ 15 nM | ≤ 10 nM | 
[2H]C([2H])([2H])O[C@@H]1CCN(c2nccc(Nc3cc4c(C(C)C)ccc(N5CC(CS(C)(=O)=O)C5)c4cn3)n2)C[C@@H]1F (single isomer, unassigned) [Compound 82] | ≤ 15 nM | ≤ 10 nM | 
CC(C)c1ccc(N2C[C@H](CS(C)(=O)=O)[C@H]2C)c2cnc(Nc3ccnc(N4CCC(C)(O)CC4)n3)cc12 (single isomer, unassigned) [Compound 46] | ≤ 15 nM | ≤ 10 nM | 
CO[C@H]1CCN(c2nccc(Nc3cc4c(C(C)C)ccc(N5CC(CS(C)(=O)=O)C5)c4cn3)n2)C[C@@H]1O (single isomer, unassigned) [Compound 54, (3R,4R)-1-[4-({8-[3-(methanesulfonylmethyl)azetidin-1-yl]-5-(propan-2-yl)isoquinolin-3-yl}amino)pyrimidin-2-yl]-4-methoxypiperidin-3-ol or (3S,4S)-1-[4-({8-[3-(methanesulfonylmethyl)azetidin-1-yl]-5-(propan-2-yl)isoquinolin-3-yl}amino)pyrimidin-2-yl]-4-methoxypiperidin-3-ol] | ≤ 15 nM |  | 30.1 to 50 nM
CC(C)c1ccc(N2C[C@H](CS(C)(=O)=O)[C@H]2C)c2cnc(Nc3ccnc(N4CC[C@](C)(O)[C@H](O)C4)n3)cc12 (single isomer, unassigned) [Compound 100, (3R,4S)-1-[4-({8-[(2R,3S)-3-(methanesulfonylmethyl)-2-methylazetidin-1-yl]-5-(propan-2-yl)isoquinolin-3-yl}amino)pyrimidin-2-yl]-4-methylpiperidine-3,4-diol or (3S,4R)-1-[4-({8-[(2R,3S)-3-(methanesulfonylmethyl)-2-methylazetidin-1-yl]-5-(propan-2-yl)isoquinolin-3-yl}amino)pyrimidin-2-yl]-4-methylpiperidine-3,4-diol] | ≤ 15 nM | ≤ 10 nM | 
CC(C)c1ccc(N2CC(CS(C)(=O)=O)C2)c2cnc(Nc3ccnc(N4CCC5(OCCO5)[C@H](F)C4)n3)cc12 (single isomer, unassigned) [Compound 180, N-{2-[(6R)-6-fluoro-1,4-dioxa-8-azaspiro[4.5]decan-8-yl]pyrimidin-4-yl}-8-[3-(methanesulfonylmethyl)azetidin-1-yl]-5-(propan-2-yl)isoquinolin-3-amine or N-{2-[(6S)-6-fluoro-1,4-dioxa-8-azaspiro[4.5]decan-8-yl]pyrimidin-4-yl}-8-[3-(methanesulfonylmethyl)azetidin-1-yl]-5-(propan-2-yl)isoquinolin-3-amine] | ≤ 15 nM | 10.1 to 20 nM | 
COCCO[C@@H]1CCN(c2nccc(Nc3cc4c(C(C)C)ccc(N5CC(CS(C)(=O)=O)C5)c4cn3)n2)C[C@H]1O (racemic) [Compound 227, (3S,4S)-1-[4-[[5-isopropyl-8-[3-(methylsulfonylmethyl)azetidin-1-yl]-3-isoquinolyl]amino]pyrimidin-2-yl]-4-(2-methoxyethoxy)piperidin-3-ol or (3R,4R)-1-[4-[[5-isopropyl-8-[3-(methylsulfonylmethyl)azetidin-1-yl]-3-isoquinolyl]amino]pyrimidin-2-yl]-4-(2-methoxyethoxy)piperidin-3-ol] | 20.1 to 30 nM | 30.1 to 50 nM | 
CC(C)c1ccc(N2C[C@H](CS(C)(=O)=O)[C@H]2C)c2cnc(Nc3ccnc(N4CC[C@@H](OCC(C)(C)O)[C@@H](F)C4)n3)cc12 [Compound 256, 1-{[(3S,4R)-3-fluoro-1-[4-({8-[(2R,3S)-3-(methanesulfonylmethyl)-2-methylazetidin-1-yl]-5-(propan-2-yl)isoquinolin-3-yl}amino)pyrimidin-2-yl]piperidin-4-yl]oxy}-2-methylpropan-2-ol] | 20.1 to 30 nM | ≤ 10 nM | 
CO[C@@H]1[C@H](O)CN(c2nccc(Nc3cc4c(C(C)C)cnc(N5C[C@H](CS(C)(=O)=O)[C@H]5C)c4cn3)n2)CC1(F)F (single isomer, unassigned) [Compound 235, (3R,4R)-5,5-difluoro-1-[4-({8-[(2R,3S)-3-(methanesulfonylmethyl)-2-methylazetidin-1-yl]-5-(propan-2-yl)-2,7-naphthyridin-3-yl}amino)pyrimidin-2-yl]-4-methoxypiperidin-3-ol or (3S,4S)-5,5-difluoro-1-[4-({8-[(2R,3S)-3-(methanesulfonylmethyl)-2-methylazetidin-1-yl]-5-(propan-2-yl)-2,7-naphthyridin-3-yl}amino)pyrimidin-2-yl]-4-methoxypiperidin-3-ol] | ≤ 15 nM | ≤ 10 nM | 
CC(C)c1ccc(N2C[C@@H](CS(C)(=O)=O)[C@@H]2C)c2cnc(Nc3ccnc(N4C[C@@H](F)[C@@H](O)C(C)(C)C4)n3)cc12 (single isomer, unassigned) [Compound 183, (4S,5R)-5-fluoro-1-[4-({8-[(2S,3R)-3-(methanesulfonylmethyl)-2-methylazetidin-1-yl]-5-(propan-2-yl)isoquinolin-3-yl}amino)pyrimidin-2-yl]-3,3-dimethylpiperidin-4-ol or (4R,5S)-5-fluoro-1-[4-({8-[(2S,3R)-3-(methanesulfonylmethyl)-2-methylazetidin-1-yl]-5-(propan-2-yl)isoquinolin-3-yl}amino)pyrimidin-2-yl]-3,3-dimethylpiperidin-4-ol] | 15.1 to 20 nM | ≤ 10 nM | 
CC(C)c1ncc(N2C[C@H](CS(C)(=O)=O)[C@H]2C)c2cnc(Nc3ccnc(N4CC[C@@](C)(O)[C@@H](F)C4)n3)cc12 (single isomer, unassigned) [Compound 138] | ≤ 15 nM | ≤ 10 nM | 
CO[C@H]1CCN(c2nccc(Nc3cc4c(C(C)C)ncc(N5C[C@H](CS(C)(=O)=O)[C@H]5C)c4cn3)n2)C[C@@H]1O (single isomer, unassigned) [Compound 104, (3S,4S)-1-(4-(5-isopropyl-8-((2R,3S)-2-methyl-3-(methylsulfonylmethyl)azetidin-1-yl)-2,6-naphthyridin-3-ylamino)pyrimidin-2-yl)-4-methoxypiperidin-3-ol or (3R,4R)-1-(4-(5-isopropyl-8-((2R,3S)-2-methyl-3-(methylsulfonylmethyl)azetidin-1-yl)-2,6-naphthyridin-3-ylamino)pyrimidin-2-yl)-4-methoxypiperidin-3-ol] | ≤ 15 nM | 10.1 to 20 nM | 
